Results taken from article PMC8585690 (Toxicology, 2021).
Values joined by “and” are separate entries in the source; they are usually repeats but may differ in a detail not shown here. Identical values can stand only once. Like-named read-outs stand apart in the source and are kept apart here. One block for each molecule: values may come before it.

Legend:
[1] = cited from earlier work; for estimated clearance: ref Kadam et al. 2013
[2] = Literature-based in vivo clinical clearance, AUC and bioavailability; details: for mean oral clearance of available literature values: mean across studies, no further adjustment; for bioavailability: in vivo
[3] = system: primary human hepatocytes or human iPSC-derived hepatocytes; details: for underprediction of clearance by LAMPS compared to in vivo: Day 1 (24 hr) clearance vs in vivo intrinsic clearance
plasma protein = details: cited from earlier work; for plasma free fraction, previously reported measurement: ref Sakolish et al. 2021; for Fub, plasma: representative range of literature-reported values, ref see Methods
Hepatocyte = details: metabolizing enzymes and conjugation pathways; cited from earlier work
[4] = system: primary human hepatocytes or human iPSC-derived hepatocytes; details: as previously reported; ref Sakolish et al. 2021; cited from earlier work
[5] = system: primary human hepatocytes or human iPSC-derived hepatocytes; assay: Hepatic clearance in monolayer culture; format: in vitro ADME; details: 2D culture; in most cases primary cells exhibited greater clearance
[6] = Plasma protein binding / plasma free fraction; format: in vitro ADME; details: human
[7] = system: microphysiological system; details: ref Marin et al. (2019); cited from earlier work

CL/F adjusted for oral absorption ([2]; 11.43*0.68, from ref Jorga et al. 1998): 7.8 L/h
bioavailability ([2]; human, oral): 62%
clearance in primary cells versus iPSC-derived hepatocytes [5]: the opposite was true
SMILES: Cc1ccc(C(=O)c2cc(O)c(O)c([N+](=O)[O-])c2)cc1 [Tolcapone]
toxicity indicated by lactate dehydrogenase (LDH) and TNF-alpha release [4]: most toxic
i.v. clearance ([1]; ref Jorga et al. 1998): 7.1 L/h
oral clearance ([1]; ref Jorga et al. 1998): 11.43 L/h
unbound fraction (plasma protein; no source cited, ref Jorga et al. 1998): < 0.001
bound (plasma protein; ref Jorga et al. 1998): > 99.9%
plasma free fraction, previously reported measurement (plasma protein): 0.002
Fub, plasma (plasma protein): <0.001-0.029
Hepatocyte metabolism (Hepatocyte): Conjugation with glucuronic acid

oral clearance converted to ([2]; from ref Loi et al. 1997): 33.5 L/h
oral clearance converted to ([2]; from ref Loi et al. 1999): 29.8 L/h and 30 L/h and 36 L/h
mean oral clearance of available literature values ([2]; human, oral): 36.8 L/h
fraction unbound [6]: 0.017
SMILES: Cc1c(C)c2c(c(C)c1O)CCC(C)(COc1ccc(CC3SC(=O)NC3=O)cc1)O2 (stereo not shown) [Troglitazone]
AUC ([1]; oral dose of 400 mg, ref Ott et al. 1998): 7300 ng·h/mL
oral clearance ([1]; ref Loi et al. 1997): 33.5 L/h
oral clearance ([1]; three values, ref Loi et al. 1999): 30 L/h and 36.1 L/h and 29.8 L/h
mean unbound fraction (plasma protein; by ultrafiltration, non-detects (one-third of subjects) not included, ref Ott et al. 1998): 0.026
plasma free fraction, previously reported measurement (plasma protein): 0.008
Fub, plasma (plasma protein): 0.0009-0.017
Hepatocyte metabolism (Hepatocyte): CYP3A4, and conjugation with sulfate or glucuronic acid

bioavailability ([2]; human, oral, 200 mg equivalent): > 100%
SMILES: N[C@@H]1[C@H]2CN(c3nc4c(cc3F)c(=O)c(C(=O)O)cn4-c3ccc(F)cc3F)C[C@@H]12 [Trovafloxacin]
toxicity indicated by lactate dehydrogenase (LDH) and TNF-alpha release [4]: most toxic
AUC ([1]; iv, 200 mg equivalent, ref Vincent et al. 1998): 22000 ng·h/mL
AUC ([1]; oral, 200 mg equivalent, ref Vincent et al. 1998): 32200 ng·h/mL
free fraction in serum (plasma protein; by equilibrium dialysis, ref Teng et al. 1995, Teng et al. 1996): 0.3 and 0.238
Hepatocyte metabolism (Hepatocyte): N-Acetylation, and conjugation with glucuronic acid

Second part, the molecule before the results:

SMILES: Cn1c(=O)c2c(ncn2C)n(C)c1=O [Caffeine]
oral clearance ([1]; human, ref Lelo et al. 1986): 0.124 L/h/kg
oral clearance converted using 70 kg body weight ([2]; human, from ref Lelo et al. 1986): 8.7 L/h
in vitro intrinsic clearance as a function of time ([3]; 10-day experimental period, all four model systems (2D and 3D, primary and iPSC-derived hepatocytes)): decline in clearance was also observed
underprediction of clearance by LAMPS compared to in vivo [3]: < 5 fold
plasma free fraction (plasma protein; equilibrium dialysis, ref Lelo et al. 1986): 0.68
plasma free fraction, previously reported measurement (plasma protein): 0.515
Plasma protein binding, % free (plasma protein; summary of Table 1 values): > 50 % free
Hepatocyte metabolism (Hepatocyte): CYPA2, xanthine oxidase, or N-acetyltransferase 2

SMILES: CCc1ccc(CCOc2ccc(CC3SC(=O)NC3=O)cc2)nc1 (stereo not shown) [Pioglitazone]
estimated clearance ([1]; "wild type" individuals): 2.12 L/h
estimated clearance ([1]; CYP2C8*3 carrier): 3.21 L/h
oral clearance ([1]; human, ref Eckland and Danhof 2000): 0.038 L/h/kg and 0.0529 L/h/kg and 0.0478 L/h/kg
absorption ([1]; ref Eckland and Danhof 2000): 83%
daily AUC ([1]; repeat dose, ref Budde et al. 2003): 14,565 ug-hr/l
AUC ([1]; single dose of 45 mg, ref Budde et al. 2003): 17,387 ug-hr/l
mean oral clearance of available literature values ([2]; human, oral): 3.02 L/h
mean oral clearance adjusted for absorption ([2]; human, oral, mean of all available values, adjusted for incomplete absorption): 2.51 L/h
oral clearance converted using 70 kg body weight ([2]; human, from ref Eckland and Danhof 2000): 2.66 L/h and 3.7 L/h and 3.35 L/h
underprediction of clearance by LAMPS compared to in vivo [3]: < 5 fold
plasma free fraction (plasma protein; ref Eckland and Danhof 2000): < 0.03
plasma free fraction, previously reported measurement (plasma protein): 0.0441
Fub, plasma (plasma protein): 0.008-0.04
Hepatocyte metabolism (Hepatocyte): CYP2C8, CYP3A4, and conjugation with sulfate or glucuronic acid

SMILES: CN(CCOc1ccc(CC2SC(=O)NC2=O)cc1)c1ccccn1 (stereo not shown) [Rosiglitazone]
oral clearance ([1]; human, ref Chapelsky et al. 2003): 3.07 L/h
AUC ([1]; i.v. dose of 2 mg, ref Cox et al. 2000): 744 ng·h/mL
AUC ([1]; oral dose of 8 mg, ref Cox et al. 2000): 2,900 ng-hr/ml and 2,930 ng-hr/ml
parent compound in feces ([1]; radioactivity detected in feces, ref Cox et al. 2000): no parent compound was detected
bioavailability ([2]; human, oral, 8 mg): 98%
mean oral clearance of available literature values ([2]; human, oral): 2.85 L/h
free fraction (plasma protein; by ultrafiltration, ref Chapelsky et al. 2003): 0.0016
plasma free fraction, previously reported measurement (plasma protein): 0.0038
Fub, plasma (plasma protein): 0.0016-0.036
Hepatocyte metabolism (Hepatocyte): CYP2C8, CYP2C9, N-demethylation, and conjugation with sulfate or glucuronic acid

SMILES: CC(C)(C)c1ccc(C(O)CCCN2CCC(C(O)(c3ccccc3)c3ccccc3)CC2)cc1 (stereo not shown) [Terfenadine]
AUC ([1]; 60 mg dose, ref Bergstrom et al. 1997): 24.6 ng·h/mL
AUC ([1]; 120 mg dose, ref Stern et al. 1998): 20.14 ng·h/mL
free fraction (plasma protein; by ultrafiltration, ref Awni et al. 1997): 0.003
plasma free fraction, previously reported measurement (plasma protein): 0.0219
Fub, plasma (plasma protein): 0.003-0.022
free fraction (plasma protein; source cited was a review, ref McTavish et al. 1990): 0.03

SMILES: CC(=O)Nc1ccc(O)cc1 [acetaminophen]
half-life in the microphysiological system as compared to in vivo [7]: 6 fold
